pIC50: −log10 of the molar value.
Columns and labels:
[1] = (§1) Displacement of [125I]-CCK8 from CCK2 receptor in guinea pig cerebral cortex; type: tissue-based, Cavia porcellus
[2] = target: T1, Cholecystokinin receptor type A (Rattus norvegicus, UniProt P30551); experiment: Displacement of [125I]-CCK8 from CCK1 receptor in rat pancreatic acinar cells
T1 sequence (P30551 whole entry): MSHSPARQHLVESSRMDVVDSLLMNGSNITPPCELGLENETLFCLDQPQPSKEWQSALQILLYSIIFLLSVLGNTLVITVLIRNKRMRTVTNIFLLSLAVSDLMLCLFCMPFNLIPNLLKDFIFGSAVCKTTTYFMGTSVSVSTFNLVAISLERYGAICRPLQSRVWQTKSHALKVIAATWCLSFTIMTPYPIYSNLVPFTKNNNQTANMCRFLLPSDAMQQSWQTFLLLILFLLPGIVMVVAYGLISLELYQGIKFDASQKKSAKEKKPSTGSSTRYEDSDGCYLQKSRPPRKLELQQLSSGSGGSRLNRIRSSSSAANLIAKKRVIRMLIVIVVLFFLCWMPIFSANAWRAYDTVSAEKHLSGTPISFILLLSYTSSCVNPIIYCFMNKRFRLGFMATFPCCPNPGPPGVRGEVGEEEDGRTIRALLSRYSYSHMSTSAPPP

Cavia porcellus [3] = species on record: Cavia porcellus; experiment: as §1; type: tissue-based; conditions: concentration not given here
Cavia porcellus [4] = species on record: Cavia porcellus; experiment: Displacement of [125I]-CCK8 from CCK2 receptor in guinea pig cerebral cortex at 30 uM; type: tissue-based
[5] = target: T2, Cholecystokinin receptor type A (Rattus norvegicus) (UniProt P30551); experiment: Displacement of [125I]-CCK8 from CCK1 receptor in rat pancreatic acinar cells 10 uM
T2 sequence (whole entry): T1 sequence (P30551 whole entry)

[6] = target: T2, Cholecystokinin receptor type A (Rattus norvegicus); experiment: Displacement of [125I]-CCK8 from CCK1 receptor in rat pancreatic acinar cells at 3 uM
Cavia porcellus [7] = species on record: Cavia porcellus; experiment: Displacement of [125I]-CCK8 from CCK2 receptor in guinea pig cerebral cortex at 10 uM; type: tissue-based
Cavia porcellus [8] = species on record: Cavia porcellus; experiment: Displacement of [125I]-CCK8 from CCK2 receptor in guinea pig cerebral cortex at 3 uM; type: tissue-based
[9] = target: T2, Cholecystokinin receptor type A (Rattus norvegicus); experiment: Displacement of [125I]-CCK8 from CCK1 receptor in rat pancreatic acinar cells 30 uM
[10] = target: T2, Cholecystokinin receptor type A (Rattus norvegicus); experiment: Displacement of [125I]-CCK8 from CCK1 receptor in rat pancreatic acinar cells at 1 uM

Structure (SMILES) | pIC50 [1] | pIC50 [2] | other results
O=C(Nc1ccccc1C(=O)N[C@H](Cc1ccccc1)C(=O)O)c1cc2cc(F)ccc2[nH]1 | 4.17 | 6.82 | 
O=C(Nc1ccccc1C(=O)N[C@H](Cc1ccccc1)C(=O)O)c1cc2cccc(F)c2[nH]1 | 4.70 | 7.26 | 
O=C(Nc1ccccc1C(=O)N[C@@H](Cc1ccccc1)C(=O)O)c1cc2ccccc2[nH]1 |  | 4.99 | inhibition (Cavia porcellus [3]): 52%
O=C(Nc1ccccc1C(=O)N[C@@H](Cc1ccccc1)C(=O)O)c1cc2cccc(F)c2[nH]1 | 5.05 | 5.45 | 
O=C(Nc1ccccc1C(=O)N[C@@H](Cc1ccccc1)C(=O)O)c1cc2cc(F)ccc2[nH]1 |  | 4.52 | inhibition (Cavia porcellus [4]): 20%
O=C(Nc1ccccc1C(=O)N[C@H](Cc1ccccc1)C(=O)O)c1cc2ccccc2[nH]1 | 4.77 | 6.97 | 
O=C(Nc1ccccc1C(=O)NC(Cc1ccccc1)C(=O)O)c1cc2ccccc2[nH]1 (racemic) | 4.79 |  | 
O=C(/C=C/c1ccccc1)Nc1ccccc1C(=O)NC(Cc1ccccc1)C(=O)O (racemic) |  |  | inhibition (Cavia porcellus [4]): 49%
Cn1c(C(=O)Nc2ccccc2C(=O)NC(Cc2ccccc2)C(=O)O)cc2ccccc21 (racemic) | 5.00 |  | 
O=C(Nc1ccccc1C(=O)NC(Cc1ccccc1)C(=O)O)C1=CC2CCCC2N1 (racemic) | 4.22 | 4.88 | 
O=C(Nc1ccccc1C(=O)NC(Cc1ccccc1)C(=O)O)c1cc2cc(Cl)ccc2[nH]1 (racemic) |  | 5.73 | inhibition (Cavia porcellus [4]): 31%
O=C(Nc1ccccc1C(=O)NC(Cc1ccccc1)C(=O)O)c1cc2cc([N+](=O)[O-])ccc2[nH]1 (racemic) |  | 5.45 | inhibition (Cavia porcellus [4]): 31%
O=C(Nc1ccccc1C(=O)NC(Cc1ccccc1)C(=O)O)c1cc2cc(F)ccc2[nH]1 (racemic) | 4.97 | 6.50 | 
O=C(Nc1ccccc1C(=O)NC(Cc1ccccc1)C(=O)O)c1cc2c([nH]1)CCCC2 (racemic) | 4.15 |  | 
O=C(Nc1ccccc1C(=O)NC(Cc1ccccc1)C(=O)O)c1ccc2ccccc2n1 (racemic) | 4.84 |  | inhibition [5]: 48%
O=C(NC(Cc1ccccc1)C(=O)O)c1ccccc1NC(=O)c1ccnc2ccccc12 (racemic) | 4.82 |  | inhibition [6]: < 20%
O=C(Nc1ccccc1C(=O)NC(Cc1ccccc1)C(=O)O)C1=Cc2ccccc2C1 (racemic) |  |  | inhibition (Cavia porcellus [7]): < 20%
O=C(CCc1c[nH]c2ccccc12)Nc1ccccc1C(=O)NC(Cc1ccccc1)C(=O)O (racemic) | 4.87 |  | 
O=C(Nc1ccccc1C(=O)NC(Cc1ccccc1)C(=O)O)c1cc2cccc(C(F)(F)F)c2[nH]1 (racemic) | 4.95 | 6.27 | 

Structure (SMILES) | pIC50 [1] | pIC50 [2] | other results
Cn1c(C(=O)Nc2ccccc2C(=O)NC(Cc2ccccc2)C(=O)O)cc2cc([N+](=O)[O-])ccc21 (racemic) |  | 5.96 | inhibition (Cavia porcellus [8]): < 20%
O=C(NC(Cc1ccccc1)C(=O)O)c1ccccc1NS(=O)(=O)c1cccc2ccccc12 (racemic) | 5.23 |  | inhibition [5]: < 20%
O=C(CC12CC3CC(CC(C3)C1)C2)Nc1ccccc1C(=O)NC(Cc1ccccc1)C(=O)O (racemic) | 4.81 |  | inhibition [9]: 51%
O=C(Nc1ccccc1C(=O)NC(Cc1ccccc1)C(=O)O)c1nc2ccccc2[nH]1 (racemic) | 4.99 |  | 
O=C(NC(Cc1ccccc1)C(=O)O)c1ccccc1NC(=O)c1nccc2ccccc12 (racemic) |  | 4.88 | inhibition (Cavia porcellus [4]): 53%
O=C(Nc1ccccc1C(=O)NC(Cc1ccccc1)C(=O)O)c1cc2c(F)cccc2[nH]1 (racemic) | 5.02 | 6.03 | 
O=C(Nc1ccccc1C(=O)NC(Cc1ccccc1)C(=O)O)c1cc2cc(F)cc(F)c2[nH]1 (racemic) | 5.03 |  | inhibition [5]: 59%
O=C(Nc1ccccc1C(=O)NC(Cc1ccccc1)C(=O)O)c1cc2ccccc2s1 (racemic) | 4.97 |  | 
O=C(NC(Cc1ccccc1)C(=O)O)c1ccccc1NS(=O)(=O)c1ccc2ccccc2c1 (racemic) | 5.14 |  | inhibition [5]: < 20%
CC1=C(C(=O)Nc2ccccc2C(=O)NC(Cc2ccccc2)C(=O)O)Cc2ccccc21 (racemic) | 4.86 |  | 
Cc1ccc2[nH]c(C(=O)Nc3ccccc3C(=O)NC(Cc3ccccc3)C(=O)O)cc2c1 (racemic) | 5.38 | 5.55 | 
Cc1cccc2cc(C(=O)Nc3ccccc3C(=O)NC(Cc3ccccc3)C(=O)O)[nH]c12 (racemic) | 4.99 | 6.17 | 
O=C(Nc1ccccc1C(=O)NC(Cc1ccccc1)C(=O)O)c1cnc2ccccc2c1 (racemic) | 4.73 |  | 
O=C(NC(Cc1ccccc1)C(=O)O)c1ccccc1NC(=O)c1c[nH]c2ccccc12 (racemic) | 4.52 |  | 
O=C(Nc1ccccc1C(=O)NC(Cc1ccccc1)C(=O)O)c1cccs1 (racemic) |  | 5.59 | inhibition (Cavia porcellus [4]): 24%
O=C(NC(Cc1ccccc1)C(=O)O)c1ccccc1NC(=O)c1cccc2ccccc12 (racemic) | 5.18 |  | inhibition [5]: < 20%
O=C(Nc1ccccc1C(=O)NC(Cc1ccccc1)C(=O)O)c1cc2cccc(F)c2[nH]1 (racemic) | 4.73 | 6.80 | 
O=C(Nc1ccccc1C(=O)NC(Cc1ccccc1)C(=O)O)c1cc2ccc(F)cc2[nH]1 (racemic) | 4.43 | 6.53 | 
O=C(NC(Cc1ccccc1)C(=O)O)c1ccccc1NC(=O)C12CC3CC(CC(C3)C1)C2 (racemic) | 4.84 |  | inhibition [5]: < 20%

Structure (SMILES) | pIC50 [1] | pIC50 [2] | other results
COc1ccc2[nH]c(C(=O)Nc3ccccc3C(=O)NC(Cc3ccccc3)C(=O)O)cc2c1 (racemic) | 4.77 |  | inhibition [6]: 42%
Cc1c(C(=O)Nc2ccccc2C(=O)NC(Cc2ccccc2)C(=O)O)[nH]c2ccccc12 (racemic) | 5.01 | 5.69 | 
O=C(Nc1ccccc1C(=O)NC(Cc1ccccc1)C(=O)O)c1cc2ccccc2o1 (racemic) | 4.86 | 6.05 | 
CC(C)(C)C(=O)Nc1ccccc1C(=O)NC(Cc1ccccc1)C(=O)O (racemic) |  |  | inhibition [5]: < 20%; inhibition (Cavia porcellus [4]): 24%
CC(C)(C)CC(=O)Nc1ccccc1C(=O)NC(Cc1ccccc1)C(=O)O (racemic) |  |  | inhibition [5]: < 20%; inhibition (Cavia porcellus [4]): 37%
COc1cc2cc(C(=O)Nc3ccccc3C(=O)NC(Cc3ccccc3)C(=O)O)[nH]c2cc1OC (racemic) |  |  | inhibition [10]: < 20%; inhibition (Cavia porcellus [8]): < 20%
Cn1cccc1C(=O)Nc1ccccc1C(=O)NC(Cc1ccccc1)C(=O)O (racemic) |  |  | inhibition [6]: 21%
O=C(/C=C/c1ccccc1[N+](=O)[O-])Nc1ccccc1C(=O)NC(Cc1ccccc1)C(=O)O (racemic) |  |  | inhibition [6]: < 20%; inhibition (Cavia porcellus [4]): 46%
O=C(CCc1ccccc1)Nc1ccccc1C(=O)NC(Cc1ccccc1)C(=O)O (racemic) |  |  | inhibition [5]: < 20%; inhibition (Cavia porcellus [4]): 37%
O=C(Cc1c[nH]c2ccccc12)Nc1ccccc1C(=O)NC(Cc1ccccc1)C(=O)O (racemic) |  |  | inhibition [5]: < 20%; inhibition (Cavia porcellus [4]): 23%
O=C(Cc1ccccc1)Nc1ccccc1C(=O)NC(Cc1ccccc1)C(=O)O (racemic) |  |  | inhibition [5]: < 20%; inhibition (Cavia porcellus [4]): 36%
O=C(Nc1ccccc1C(=O)NC(Cc1ccccc1)C(=O)O)c1cc2cc(OCc3ccccc3)ccc2[nH]1 (racemic) |  |  | inhibition [10]: < 20%; inhibition (Cavia porcellus [8]): < 20%
O=C(Nc1ccccc1C(=O)NC(Cc1ccccc1)C(=O)O)c1ccc2[nH]ccc2c1 (racemic) |  |  | inhibition [5]: 41%
O=C(Nc1ccccc1C(=O)NC(Cc1ccccc1)C(=O)O)c1ccc[nH]1 (racemic) |  |  | inhibition [6]: < 20%
O=C(Nc1ccccc1C(=O)NC(Cc1ccccc1)C(=O)O)c1ccccn1 (racemic) |  |  | inhibition [6]: < 20%; inhibition (Cavia porcellus [4]): 31%
O=C(Nc1ccccc1C(=O)NC(Cc1ccccc1)C(=O)O)c1cccnc1 (racemic) |  |  | inhibition [6]: < 20%; inhibition (Cavia porcellus [4]): 44%
O=C(Nc1ccccc1C(=O)NC(Cc1ccccc1)C(=O)O)c1ccco1 (racemic) |  |  | inhibition [6]: 24%; inhibition (Cavia porcellus [4]): 27%
O=C(Nc1ccccc1C(=O)NC(Cc1ccccc1)C(=O)O)c1ccncc1 (racemic) |  |  | inhibition [6]: < 20%; inhibition (Cavia porcellus [4]): 26%
O=C(Nc1ccccc1C(=O)NC(Cc1ccccc1)C(=O)O)c1cnccn1 (racemic) |  |  | inhibition [6]: < 20%; inhibition (Cavia porcellus [4]): < 20%
